The numbers were not newly measured in US7288574B2, “Two-phase oxygenated solution and method of use” (priority 2001, dated 2007), which cites them from elsewhere.

The conditions of this data set: equilibrium with air (pO2=0.21) at 77° F.

Regarding `O=O` [oxygen], the “solubility limit of oxygen in water” value is “approximately 8.3 mg/l”.
